Results from ChEMBL document CHEMBL1201862, “PubChem BioAssay data set” (2004).
Calls of active or inactive are those of the source.

What was measured:
[1] = biological target: Sphingosine 1-phosphate receptor 4 (Homo sapiens, UniProt O95977); assay: Late-stage fluorescence dose response cell-based counterscreening assay for agonists of the Sphingosine 1-Phosphate Receptor 4 (S1P4): inhibition by S1P4-selective antagonist. [Related pubchem assays (depositor defined):AID1509, AID1523, AID1563, AID1686, AID1701, AID1801, AID463107, AID463118, AID463119, AID463122, AID463123, AID463129, AID504400]; format: functional
[2] = biological target: Sphingosine 1-phosphate receptor 2 (Homo sapiens, UniProt O95136); assay: (§1) Late-stage fluorescence-based dose-response cell-based assay to identify agonists of the Sphingosine 1-Phosphate Receptor 4 (S1P4): Sphingosine 1-Phosphate Receptor 2 (S1P2) counterscreen assay. [Related pubchem assays (depositor defined):AID1509, AID1523, AID1563, AID1686, AID1701, AID1801, AID463107, AID463225, AID504400]; format: functional
[3] = biological target: Sphingosine 1-phosphate receptor 1 (Homo sapiens, UniProt P21453); assay: as §1, with “1 (S1P1)” for “2 (S1P2)”; format: functional
[4] = biological target: Sphingosine 1-phosphate receptor 3 (Homo sapiens, UniProt Q99500); assay: as §1, with “3 (S1P3)” for “2 (S1P2)”; format: functional
[5] = Late-stage assay provider results from the probe development effort to identify agonists of the Sphingosine 1-Phosphate Receptor 4 (S1P4): luminescence-based cell-based dose response assay to determine cytotoxicity of agonist compounds. [Related pubchem assays (depositor defined):AID1509, AID1523, AID1563, AID1686, AID1701, AID1801, AID463107, AID463225, AID504400]; format: functional
[6] = biological target: Sphingosine 1-phosphate receptor 5 (Homo sapiens, UniProt Q9H228); assay: as §1, with “5 (S1P5)” for “2 (S1P2)”; format: functional
[7] = THP-1 cell cytotoxicity, dose response, cytotoxicity control for non-replicating M. tuberculosis project (AID 489025); format: functional
[8] = Vero E6 cell cytotoxicity, dose response, cytotoxicity control for non-replicating M. tuberculosis project, secondary assay (AID 492998); format: functional, VeroE6; conditions: Vero C1008
[9] = HepG2 cell cytotoxicity, dose response, cytotoxicity control for non-replicating M. tuberculosis project (AID 489018); format: functional; conditions: Mycobacterium tuberculosis
[10] = toxicity toward HepG2 liver cells – cell-based, plate reader, cherry-pick, antagonist series, cytotoxicity control, dose response (AID 743416); format: functional
cells = format: functional
[11] = viability loss in HeLa cells – cytotoxicity control for MgcRacGAP inhibitor project, dose response (AID 624300); format: functional
[12] = biological target: T1, Microphthalmia-associated transcription factor (Homo sapiens, UniProt O75030); assay: reducers of TRPM1 reporter luminescence, concentration series – cell-based, SK-MEL-5, cherry-picked, set 3, MITF inhibitor project, dose response (AID 493073); format: functional;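 further: SK-MEL-5 melanoma cells with luciferase driven by the MITF target TRPM1 promoter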
T1 sequence (O75030 whole entry): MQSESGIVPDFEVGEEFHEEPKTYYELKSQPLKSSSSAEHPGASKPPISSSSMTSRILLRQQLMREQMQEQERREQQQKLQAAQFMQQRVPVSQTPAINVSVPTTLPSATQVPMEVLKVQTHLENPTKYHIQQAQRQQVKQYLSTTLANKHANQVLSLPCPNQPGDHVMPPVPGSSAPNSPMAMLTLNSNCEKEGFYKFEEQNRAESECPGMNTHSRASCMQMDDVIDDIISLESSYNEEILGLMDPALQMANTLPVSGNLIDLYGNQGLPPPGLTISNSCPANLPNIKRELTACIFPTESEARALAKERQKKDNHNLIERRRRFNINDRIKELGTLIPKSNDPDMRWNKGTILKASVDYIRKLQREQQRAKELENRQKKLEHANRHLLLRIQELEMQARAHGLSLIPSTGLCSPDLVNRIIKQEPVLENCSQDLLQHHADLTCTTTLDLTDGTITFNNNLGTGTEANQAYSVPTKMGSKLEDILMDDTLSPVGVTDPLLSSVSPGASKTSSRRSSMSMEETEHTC

[13] = blockers of bursicon-stimulated LGR2 cAMP reporter – cell-based, HEK293, CRE-luciferase reporter, cherry pick, set 2, dose response (AID 743343); format: functional;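 further: transfected cells were stimulated with diluted bursicon conditioned medium after compound addition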
A-375 = assay: proliferation inhibition in MITF-low A375 cells – cell-based, cherry-pick samples, set 2, counter-screen for MITF modulator project, dose response (AID 540335); format: functional; conditions: Homo sapiens
[14] = blockade of melanocortin 4 receptor signaling – cell-based, plate reader, cherry pick, counter-screen for LGR2 antagonist project, dose response (AID 743444); format: functional;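 further: transfected HEK 293 cells stimulated with alpha-MSH peptide; potency of inhibitors of the alpha-MSH evoked signal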
[15] = viability loss in HEK293 cells – cell-based, plate reader, cherry-picked samples, cytotoxicity control, dose response (AID 743446); format: functional
[16] = biological target: T2, Ubiquitin-conjugating enzyme E2 N (Homo sapiens, UniProt P61088); format: functional;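 further: Dose-response confirmation in a TR-FRET assay detecting UBC13-driven polyubiquitin chain formation, inhibition measured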
T2 sequence (P61088 whole entry): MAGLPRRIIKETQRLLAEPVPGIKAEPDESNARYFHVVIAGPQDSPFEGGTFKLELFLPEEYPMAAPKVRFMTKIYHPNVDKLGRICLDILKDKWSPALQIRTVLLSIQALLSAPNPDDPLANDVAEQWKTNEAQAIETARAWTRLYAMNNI

[17] = A549 cell cytotoxicity, dose response, cytotoxicity control, plate reader, cherry-pick, antagonist series (AID 743412); format: functional, cell-based
[18] = biological target: T3, Rac GTPase-activating protein 1 (Homo sapiens, UniProt Q9H0H5); assay: blockers of MgcRacGAP-driven Rac1 GTP hydrolysis – biochemical, ADP Hunter fluorescence, primary and confirmatory, confirmation (AID 624330); format: functional
T3 sequence (Q9H0H5 whole entry): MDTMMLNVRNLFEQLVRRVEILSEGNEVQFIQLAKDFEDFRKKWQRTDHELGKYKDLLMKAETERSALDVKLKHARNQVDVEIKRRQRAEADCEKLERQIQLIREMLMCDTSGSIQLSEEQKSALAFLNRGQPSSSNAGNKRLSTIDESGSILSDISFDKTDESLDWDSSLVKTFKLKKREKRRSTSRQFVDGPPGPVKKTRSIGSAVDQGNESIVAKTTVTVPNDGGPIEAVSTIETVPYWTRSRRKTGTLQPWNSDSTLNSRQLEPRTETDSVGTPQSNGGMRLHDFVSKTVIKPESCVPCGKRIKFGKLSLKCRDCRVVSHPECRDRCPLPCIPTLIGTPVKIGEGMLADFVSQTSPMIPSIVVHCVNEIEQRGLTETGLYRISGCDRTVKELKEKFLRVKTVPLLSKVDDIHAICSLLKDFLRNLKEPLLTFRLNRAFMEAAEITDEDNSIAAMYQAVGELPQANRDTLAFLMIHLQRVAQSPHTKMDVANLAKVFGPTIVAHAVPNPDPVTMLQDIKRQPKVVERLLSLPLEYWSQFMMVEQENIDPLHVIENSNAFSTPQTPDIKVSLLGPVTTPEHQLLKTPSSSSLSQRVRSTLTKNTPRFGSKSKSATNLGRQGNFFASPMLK

Candida albicans = assay: Candida growth inhibition combined with fluconazole – CaCi-2 strain, Alamar Blue, dry powder, set 3, dose response (AID 488907); format: functional, organism-based

Sequence of Sphingosine 1-phosphate receptor 5 (Q9H228 whole entry): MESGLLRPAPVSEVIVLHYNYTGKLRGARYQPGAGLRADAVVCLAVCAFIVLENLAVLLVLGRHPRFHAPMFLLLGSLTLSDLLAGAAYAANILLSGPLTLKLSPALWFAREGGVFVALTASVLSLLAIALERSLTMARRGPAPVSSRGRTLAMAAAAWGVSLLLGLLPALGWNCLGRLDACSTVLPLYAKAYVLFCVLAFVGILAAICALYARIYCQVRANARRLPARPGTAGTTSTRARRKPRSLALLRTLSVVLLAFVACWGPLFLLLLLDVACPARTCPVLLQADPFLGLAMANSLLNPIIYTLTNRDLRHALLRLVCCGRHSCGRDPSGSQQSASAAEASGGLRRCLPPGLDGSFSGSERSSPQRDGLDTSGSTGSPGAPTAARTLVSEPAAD
Sequence of Sphingosine 1-phosphate receptor 3 (Q99500 whole entry): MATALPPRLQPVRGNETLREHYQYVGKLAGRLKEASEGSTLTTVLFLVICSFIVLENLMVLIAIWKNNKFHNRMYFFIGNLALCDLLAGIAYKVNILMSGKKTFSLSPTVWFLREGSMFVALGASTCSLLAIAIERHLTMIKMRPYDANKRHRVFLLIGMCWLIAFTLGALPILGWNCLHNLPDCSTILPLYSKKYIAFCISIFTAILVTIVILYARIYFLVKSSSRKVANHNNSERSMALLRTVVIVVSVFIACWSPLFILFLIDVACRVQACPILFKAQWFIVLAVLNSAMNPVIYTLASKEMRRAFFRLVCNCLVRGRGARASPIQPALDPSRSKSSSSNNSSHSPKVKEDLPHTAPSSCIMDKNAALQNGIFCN
Sequence of Sphingosine 1-phosphate receptor 4 (O95977 whole entry): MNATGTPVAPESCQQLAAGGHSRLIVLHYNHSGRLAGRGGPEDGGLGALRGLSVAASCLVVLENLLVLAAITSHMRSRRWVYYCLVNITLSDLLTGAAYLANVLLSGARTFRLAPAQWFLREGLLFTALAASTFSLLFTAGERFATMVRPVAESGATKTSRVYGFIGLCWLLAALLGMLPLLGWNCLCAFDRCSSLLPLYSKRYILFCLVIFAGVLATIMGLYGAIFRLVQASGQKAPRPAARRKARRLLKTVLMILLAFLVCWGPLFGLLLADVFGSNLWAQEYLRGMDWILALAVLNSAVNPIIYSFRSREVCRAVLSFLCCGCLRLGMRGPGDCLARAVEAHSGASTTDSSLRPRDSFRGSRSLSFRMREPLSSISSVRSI
Sequence of Sphingosine 1-phosphate receptor 1 (P21453 whole entry): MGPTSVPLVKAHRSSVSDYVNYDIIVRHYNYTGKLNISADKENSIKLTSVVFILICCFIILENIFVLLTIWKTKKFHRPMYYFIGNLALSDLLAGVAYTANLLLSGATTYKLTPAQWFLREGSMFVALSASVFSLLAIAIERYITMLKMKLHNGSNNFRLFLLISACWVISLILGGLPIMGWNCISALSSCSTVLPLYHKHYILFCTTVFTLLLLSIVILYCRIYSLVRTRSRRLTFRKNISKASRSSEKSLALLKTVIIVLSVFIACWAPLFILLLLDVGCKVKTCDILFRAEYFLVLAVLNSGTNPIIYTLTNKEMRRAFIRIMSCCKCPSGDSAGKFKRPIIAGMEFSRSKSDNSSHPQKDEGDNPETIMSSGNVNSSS
Sequence of Sphingosine 1-phosphate receptor 2 (O95136 whole entry): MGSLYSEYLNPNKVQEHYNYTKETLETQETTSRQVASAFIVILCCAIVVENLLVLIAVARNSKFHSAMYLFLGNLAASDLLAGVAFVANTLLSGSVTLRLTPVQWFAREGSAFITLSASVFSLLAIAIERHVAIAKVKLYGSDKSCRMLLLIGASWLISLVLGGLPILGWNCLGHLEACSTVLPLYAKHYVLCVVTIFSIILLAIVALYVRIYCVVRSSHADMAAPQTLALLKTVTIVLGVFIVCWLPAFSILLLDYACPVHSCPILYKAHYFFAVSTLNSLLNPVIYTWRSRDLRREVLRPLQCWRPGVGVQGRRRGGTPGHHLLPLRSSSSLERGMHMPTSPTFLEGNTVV

Clc1ccc(OCCOc2ccc(Br)nc2Br)c(Cl)c1
IC50 [1]: 0.83 µM (active) | EC50 [2]: > 50 µM (inactive) | EC50 [3]: > 50 µM (inactive) | EC50 [4]: > 50 µM (inactive) | CC50 [5]: > 20 µM (inactive) | EC50 [6]: > 50 µM (inactive)

CC(C)(c1ccccc1)c1ccc(OCC(O)CNC2CCN(Cc3ccccc3)CC2)cc1 (stereo unspecified)
CC50 [7]: 6.44 µM (active) | CC50 [8]: 5.72 µM (active) | CC50 [9]: 6.65 µM (active) | AC50 [10]: 4.23 µM (active) | IC50 (cells): 5.15 µM (active) | CC50 [11]: 17.6 µM (active) | AC50 [12]: 7.94 µM (active) | AC50 [13]: 10.5 µM (active) | AC50 (A-375): 18.1 µM (active) | AC50 [14]: 6.77 µM (active) | AC50 [15]: 8.12 µM (active) | IC50 [16]: > 20 µM (inactive) | AC50 [17]: 6.42 µM (active) | IC50 [18]: 50.6 µM (active)

N#Cc1cccnc1N1CCN(C(=O)c2ccc(Cl)cc2)CC1
AC50 (Candida albicans): 0.611 µM (active)
